From patent US20250382256A1, “DICARBOXYLIC ACID DIESTERS” (DSM IP Assets B.V., priority 2018, published 2025) come the findings set out here.

Where a name gives a salt, the structure may show the parent alone. Read-outs that look alike come from different tables or passages of the source.

One data set deals with rumen liquor. As to the kind of experiment: In vitro test for methane production (modified Hohenheim Forage value Test, HFT). The format is cell-based. Particulars: read-out: Methane inhibition. The protocol: A modified version of the “Hohenheim Forage value Test (HFT)” was used for testing the effect of specific compounds on the rumen functions mimicked by this in-vitro system. Principle: Feed (i.e. a TMR) (300 mg) is given into a syringe with a composition of rumen liquor and an appropriate mixture of buffers (i.e. rumen-fluid buffer mix: 25 ml) and the substances to be tested in the concentrations as outlined in table 2 (the inhibitors to be tested are diluted in ethanol to reach the respective concentration of dry matter in 50 μl). The solution is incubated at 39° C. for 8 h. The quantity of produced gas is measured and put into a formula for conversion. After the incubation the composition of gas is measured with a GC. TMR (44% concentrate, 6% hay, 37% maize silage and 13% grass silage) is sieved to 1 mm and weighed exactly into the syringes. One run contains 4 repetitions, each with 16 syringes and comprises substrate controls, which display the gas production without the effect of the tested compounds, carrier controls, which display the gas production in the presence of the carrier (solvent) only (i.e. EtOH used to dissolve the test compounds), and test samples (in the carrier), which contain the test substances in varying concentrations as outlined in table 2. The components are mixed in a Woulff bottle in following order: • 711 ml water • 0.18 ml trace element solution • 355.5 ml buffer solution • 355.5 ml mass element solution The completed solution is warmed up to 39° C. followed by the addition of 1.83 ml sodium salt solution and the addition of reduction solution at 36° C. The rumen liquor (750 ml) is added, when the indicator turns colorless under continued agitation and CO2-gassing. The rumen-fluid-buffer-mix is added to the glass syringe prepared as outlined above containing the TMR and the active to be tested. The syringes are then incubated for 8 hours at 39° C. under gentle agitation. After 8 the volume of gas produced is measured, and the percentage of methane in the gas phase is determined by gas chromatography.

A short description of data set [1]: Vapor pressure of the purified diester. The format is physicochemical. The note with it: purified product.

On to `O=C(/C=C/C(=O)OCCCO[N+](=O)[O-])OCCCO[N+](=O)[O-]` [(I-b), bis(3-(nitrooxy)propyl) fumarate], for which, in the data set on rumen liquor (8 h), the inhibition (as a rule, how much of the control response was suppressed) at 5 µM was 96% and the inhibition at 10 µM was determined as 99%. This compound also had a vapor pressure in data set [1] of 0.00133 mbar.
For the compound `O=C(CC(=O)OCCCO[N+](=O)[O-])OCCCO[N+](=O)[O-]` [(I-a), bis(3-(nitrooxy)propyl) malonate], in the data set with rumen liquor (8 h), the inhibition at 2.5 µM worked out at 72%, the inhibition at 5 µM came out at 97% and the inhibition at 10 µM turned out to be 99%. In addition, the vapor pressure in data set [1] turned out to be 0.00133 mbar.
`O=C(CCC(=O)OCCCO[N+](=O)[O-])OCCCO[N+](=O)[O-]` [(I-c), bis(3-(nitrooxy)propyl) succinate]: in the data set on rumen liquor (8 h), the inhibition at 10 µM turned out to be 99%. This compound also gave a vapor pressure in data set [1] of 0.00133 mbar.
With `O=[N+]([O-])OCCCO` [Ref, 3-nitrooxypropanol, reference compound], in the data set with rumen liquor (2.5 μmol/l, 8 h at 39° C., TMR in rumen-fluid buffer mix, reduction versus substrate control), the inhibition at 2.5 µM amounted to 32%. For the same compound, in the data set on rumen liquor (5 μmol/l, 8 h at 39° C., TMR in rumen-fluid buffer mix, reduction versus substrate control), the inhibition at 5 µM was determined as 86%. Further, the inhibition at 10 µM in the data set with rumen liquor (10 μmol/l, 8 h at 39° C., TMR in rumen-fluid buffer mix, reduction versus substrate control) is 99%.
